Several values for one entry are separate records, joined by “and”; a condition that tells them apart may be missing. Identical values can stand only once. Like-named read-outs stand apart in the source and are kept apart here. * marks the point of attachment. (C12)2NCOCH2CH2CO = CCCCCCCCCCCCN(CCCCCCCCCCCC)C(=O)CCC(=O)*; OC7 = heptyl ester (C-terminal), CCCCCCCO*
System: A. thaliana (Col-0) plant
Type: in vivo, Arabidopsis thaliana
Settings: for Lateral root density with increasing concentration: 0 μM to 50 μM, FIG. 7; for Change in root morphology: lariat ether 20 μM; for Decrease in primary root length: vs PNS
Source text: The effect treating a plant with a composition comprising a synthetic amphiphile on root morphology or other physical characteristics or attributes can be quantitated. For example, a change in primary root length can be determined by measuring the difference, if any, in primary root length of a plant treated with the composition compared to the average of a control sample of plants of the same type grown under identical conditions in the absence of the composition. A change in lateral root density can be determined by comparing the lateral root density of a plant treated with the composition to the average lateral root density of a sample grown under identical conditions in the absence of the composition. Lateral root density can be determined by dividing the number of lateral roots by the length of the primary root. In certain embodiments for any quantitated characteristic or attribute, the average value of the control is the average of a statistically significant population of control plants. For example, in certain illustrative embodiments disclosed herein, three trials of about 20 plants each were used to determine the average of the control.
Illustrative of certain embodiments, approximately 60 plants were grown on PNS media (no additives) and root lengths and the number of lateral roots were recorded for each. The data points were averaged to obtain the following baseline values: primary root length=40.4±3.8 mm and number of lateral roots=6.1±0.8, respectively. The lateral root density was obtained by dividing the number of lateral roots by the length (in mm) of the primary root. The control value was (6.1/[…]=) 0.15.
Test compounds were added to the growth medium as 0.2% by volume DMSO. […]
To make 500 mL PN media, 485 mL doubly distilled (“dd”) H2O was first added to an autoclave beaker. The following salts and nutrients were added to a beaker and mixed well: 5 mL of 250 mM of KPO4 (pH 5.5), 2.5 mL of 1M KNO3, 1 mL of 1M MgSO4, 1 mL of 1M Ca(NO3)2, 0.5 mL of Ferric EDTA (1000× or 49 mM) and 0.5 mL of Micronutrients (1000×). In a 1 L autoclaved bottle, 0.6% (3 g) of bacteriological agar was added, followed by 500 mL solution prepared above. The media was autoclaved using the Liquid-30 program.
PNS plates were used for plating sterile Arabidopsis thaliana (Columbia-0) seeds. A sterile stock of PNS agar was maintained. Sterile sucrose was added to PN media to make PNS media. To make PNS media containing 0.5% sucrose, 5 mL of 50% sucrose (sterile filtered) was added to 500 mL of PN agar and mixed well.
The stored PNS media was liquefied using a water bath and allowed to cool to 55° C. The type of plates, compounds, and concentrations to be used were confirmed while the media cooled. The plates were labeled on the cover and the bottom with all the relevant information. 50 mL sterile centrifuge tubes were used to measure 29,940 μL (29.94 mL) PNS media. A fresh sterile 50 mL tube was used for each plate. The desired amount and concentration of compound was added to the PNS media, mixed by inverting the tube and poured in the plate. Total volume of media and compound in each plate was kept constant at 30 mL. A maximum of 60 μL (0.2% by volume) compound was added per plate. For example: 60 μL of 25 mM compound was added to 29.94 mL PNS media to get final concentration of 50 μM compound in PNS media. Plates were incubated at room temperature for 2 hours before plating seeds on them.
Hands and bench area were washed thoroughly before beginning. Sterilizing solution was prepared in a sterile 15 mL centrifuge tube, by mixing 5 mL of 30% bleach and 5 μL of 10% Triton X-100. A. thaliana Col-0 seeds were added to sterile 1.5 mL micro-centrifuge tube. 500 μL of sterilizing solution (30% bleach+0.01% Triton X-100) was added to the seeds, vortexed for 3 seconds and incubated at room temperature for 8 minutes. After 8 minutes, bleach was removed and 1 mL autoclaved MilliQ water was added. […]

[1] = 100 nM in PNS, positive control
[2] = Table 2, 50 μM in PNS, no unit in table (method: millimeters)
[3] = Table 2, 20 μM in PNS, no unit in table (method: millimeters)

Molecule | Lateral root density (Table 2, 50 μM) | Number lateral roots (Table 2, 50 μM) | Percent decrease 1° root (Table 2, 50 μM) [%] | Primary root length [2] [mm] | Lateral root density (Table 2, 20 μM) | Number lateral roots (Table 2, 20 μM) | Percent decrease 1° root (Table 2, 20 μM) [%] | Primary root length [3] [mm] | further results
O=C(O)COc1ccc(Cl)cc1Cl [2,4-D, 2,4-Dichlorophenoxyacetic acid, reference compound] |  |  |  |  |  |  |  |  | Lateral root density [1]: 0.85 and 0.85 ± 0.12; Number of lateral roots [1]: 3.4±0.6; Primary root length [1]: 3.9±0.6 mm
CCCCCC(=O)N1CCOCCOCCN(C(=O)CCCCC)CCOCCOCC1 [C6 lariat ether amide] | 0.15 | 5.6 | 4.9 | 38.6 |  |  |  |  | 
CCCCCCN1CCOCCOCCN(CCCCCC)CCOCCOCC1 [C6 lariat ether] | 0.14 | 4.6 | 18.8 | 33 | 0.18 | 6.6 | 5.9 | 38.3 | 
CCCCCCC(=O)N1CCOCCOCCN(C(=O)CCCCCC)CCOCCOCC1 [C7 lariat ether amide] | 0.65 | 4.2 | 82.5 | 7.3 | 0.21 | 4.5 | 45.3 | 22.9 | 
CCCCCCCC(=O)N1CCOCCOCCN(C(=O)CCCCCCC)CCOCCOCC1 [C8 lariat ether amide, N,N′-Dioctanoyl-4,13-diaza-18-crown-6] | 0.17 | 5.2 | 23.2 | 31.2 |  |  |  |  | 
CCCCCCCCN1CCOCCOCCN(CCCCCCCC)CCOCCOCC1 [C8 lariat ether, N,N′-Di-n-octyl-4,13-diaza-18-crown-6] | 1.38 | 2.2 | 96.1 | 1.6 | 0.64 | 5.1 | 83.4 | 6.8 | Lateral root density with increasing concentration: Linear increase in lateral root density; Change in root morphology: significant change in root morphology
CCCCCCCCC(=O)N1CCOCCOCCN(C(=O)CCCCCCCC)CCOCCOCC1 [C9 lariat ether amide] | 0.13 | 2 | 62.6 | 15.7 | 0.19 | 1.6 | 78.2 | 9.2 | 
CCCCCCCCCC(=O)N1CCOCCOCCN(C(=O)CCCCCCCCC)CCOCCOCC1 [C10 lariat ether amide, N,N′-Didecanoyl-4,13-diaza-18-crown-6] | 0.19 | 0.6 | 92.4 | 3.1 |  |  |  |  | 
CCCCCCCCCCN1CCOCCOCCN(CCCCCCCCCC)CCOCCOCC1 [C10 lariat ether, N,N′-Didecyl-4,13-diaza-18-crown-6] | 1.75 | 3.5 | 95.1 | 2 | 1.14 | 4 | 91.4 | 3.5 | Lateral root density with increasing concentration: Linear increase in lateral root density; Change in root morphology: significant change in root morphology
CCCCCCCCCCCC(=O)N1CCOCCOCCN(C(=O)CCCCCCCCCCC)CCOCCOCC1 [C12 lariat ether amide] | 0.18 | 7 | 1.73 | 39.9 |  |  |  |  | 
CCCCCCCCCCCCN1CCOCCOCCN(CCCCCCCCCCCC)CCOCCOCC1 [C12 lariat ether] | 0.15 | 4.9 | 11.5 | 35.9 | 0.17 | 6 | 1.3 | 40.1 | 
CCCCCCCCCCCCC(=O)N1CCOCCOCCN(C(=O)CCCCCCCCCCCC)CCOCCOCC1 [C13 lariat ether amide] | 0.14 | 4.2 | 14.9 | 35.6 | 0.14 | 5.1 | 11.8 | 36.9 | 
c1ccc(CN2CCOCCOCCN(CCCCCCCCCCCCCCN3CCOCCOCCN(CCCCCCCCCCCCCCN4CCOCCOCCN(Cc5ccccc5)CCOCCOCC4)CCOCCOCC3)CCOCCOCC2)cc1 [C14 hydraphile (2)] |  |  |  |  |  |  |  |  | Number of lateral roots (hydraphile 20 μM): 6.2±0.3; Primary root length (hydraphile 20 μM in PNS media): 14 ± 2 mm; Primary root length (hydraphile 20 μM in PNS media, listed as compound 2): 14±2 mm; Decrease in primary root length (hydraphile 20 μM): 63%; Increase in lateral root density (hydraphile 20 μM, vs control): 4 fold; Lateral root density (hydraphile 20 μM, lateral roots divided by primary root length): 0.48±0.08; Primary root length (hydraphile 50 μM in PNS media): 0.7 ± 0.2 mm; Primary root length (hydraphile 50 μM in PNS media, listed as compound 2): 0.7±0.2 mm; Decrease in primary root length (hydraphile 50 μM): 98%
CCCCCCCCCCCCCC(=O)N1CCOCCOCCN(C(=O)CCCCCCCCCCCCC)CCOCCOCC1 [C14 lariat ether amide] | 0.21 | 8.6 | 0 | 41.9 |  |  |  |  | 
CCCCCCCCCCCCCCN1CCOCCOCCN(CCCCCCCCCCCCCC)CCOCCOCC1 [C14 lariat ether] | 0.21 | 4.9 | 48.4 | 20.9 | 0.17 | 6.9 | 0 | 41.5 | 
c1ccc(CN2CCOCCOCCN(CCCCCCCCCCCCCCCCN3CCOCCOCCN(CCCCCCCCCCCCCCCCN4CCOCCOCCN(Cc5ccccc5)CCOCCOCC4)CCOCCOCC3)CCOCCOCC2)cc1 [C16 hydraphile (3)] |  |  |  |  |  |  |  |  | Primary root length (hydraphile 10 μM in PNS media): 23 ± 0.4 mm; Primary root length (hydraphile 10 μM in PNS media, listed as compound 3): 23±0.4 mm; Decrease in primary root length (hydraphile 10 μM): 39%; Primary root length (hydraphile 20 μM in PNS media): 15 ± 0.5 mm; Primary root length (hydraphile 20 μM in PNS media, listed as compound 3): 15±0.5 mm; Decrease in primary root length (hydraphile 20 μM): 61%; Effect on growth / root development (hydraphile 50 μM in PNS media): inhibit the primary root development; Primary root length (hydraphile 50 μM in PNS media): 4 ± 0.2 mm; Primary root length (hydraphile 50 μM in PNS media, listed as compound 3): 4±0.2 mm; Decrease in primary root length (hydraphile 50 μM): 90%
(C12)2NCOCH2CH2CO-AAAPGGG-OC7 ({(C12)2NCOCH2CH2CO}-AAAPGGG-OC7; SMILES CCCCCCCCCCCCN(CCCCCCCCCCCC)C(=O)CCC(=O)N[C@@H](C)C(=O)N[C@@H](C)C(=O)N[C@@H](C)C(=O)N1CCC[C@H]1C(=O)NCC(=O)NCC(=O)NCC(=O)OCCCCCCC) [Compound 10] |  |  |  |  |  |  |  |  | Lateral root density (SAT 50 μM in PNS): 0.12; Number of lateral roots (SAT 50 μM in PNS): 3.4; Primary root length (SAT 50 μM in PNS): 28.4 mm
